Literature values in patent publication US8449914B2, “Controlled release carvedilol compositions” (Egalet Ltd., priority 2002, dated 2013).
Like-named read-outs stand apart in the source and are kept apart here.

Assays:
[1] = test system: beta-adrenoreceptor; settings: humans
[2] = test system: alpha1-adrenoreceptor; settings: IR formulation
[3] = not given; remark: listed apart in the source
[4] = test system: beta-adrenoreceptor; settings: preclinical studies

For `COc1ccccc1OCCNCC(O)COc1cccc2[nH]c3ccccc3c12` (racemic) [Carvedilol], the “time after administration at which beta-blocking actions are evident” value [1] is given as “one”, the “time after administration at which alpha-mediated vasodilatory effects are evident” value [2] is given as ≤ 30 min and the “steady-state volume of distribution” value (in vivo) is given as “approximately 115 L”. The “absorption in the large intestine, share of the total absorption” value (timed-release capsules, study by Nolte et al) was “approximately 10%”, the solubility ([3]; 95% ethanol) was “sparingly soluble” and the solubility ([3]; dimethylsulfoxide) was “freely soluble”. For the same molecule, the solubility ([3]; ethyl ether) was “slightly soluble”, the solubility ([3]; gastric fluid (simulated, TS, pH1.1)) was “practically insoluble” and the solubility ([3]; intestinal fluid (simulated, TS without pancreatin, pH 7.5)) was “practically insoluble”. The solubility ([3]; isopropanol) was “sparingly soluble”, the solubility ([3]; methanol) was “soluble” and the solubility ([3]; methylene chloride) was “soluble”. For the same molecule, the solubility ([3]; water) was “practically insoluble”.

For `COc1cc(O)ccc1OCCNCC(O)COc1cccc2[nH]c3ccccc3c12` (centres unmarked) [4′-hydroxyphenyl metabolite, 4′-hydroxy carvedilol], the “potency for beta-blockade relative to carvedilol” value [4] is listed as “approximately 13 times”.

For `COc1ccccc1OCCNC[C@@H](O)COc1cccc2[nH]c3ccccc3c12` [R(+)-carvedilol], the “mean apparent terminal elimination half-lives” value (in vivo) is listed as 5 to 9 h and the “plasma concentrations in poor metabolizers of debrisoquin compared to extensive metabolizers” value (in vivo) is listed as 2-3 fold.

For `COc1ccccc1OCCNC[C@H](O)COc1cccc2[nH]c3ccccc3c12` [S(−)-carvedilol], the “mean apparent terminal elimination half-lives” value (in vivo) is given as 7 to 11 h.
